Measurements published in patent US20260022142A1, “MACROCYCLIC IMMUNOMODULATORS” (Bristol-Myers Squibb Company, priority 2022, published 2026).
pIC50: −log10 of the molar value. Bridge positions count the residues as written; N and C are the ends. Square brackets hold non-standard residues; d marks the D form. Peptide text beside a SMILES is read from it. * marks the point of attachment. ξ: configuration not given here. Phe(4-COOH) = N[C@@H](Cc1ccc(C(=O)O)cc1)C(=O)O; Bip = N[C@@H](Cc1ccc(-c2ccccc2)cc1)C(=O)O; Phe(3-Me) = Cc1cccc(C[C@H](N)C(=O)O)c1; Val(3-OH) = CC(C)(O)[C@H](N)C(=O)O; 4Pal = N[C@@H](Cc1ccncc1)C(=O)O; Cha = N[C@@H](CC1CCCCC1)C(=O)O; Cit = NC(=O)NCCC[C@H](N)C(=O)O; Ile(3ξ) = CCC(C)[C@H](N)C(=O)O; Thr(3ξ) = CC(O)[C@H](N)C(=O)O; dDab = NCC[C@@H](N)C(=O)O; Carboxymethyl = O=C(O)C*; Orn = NCCC[C@H](N)C(=O)O; Aun = NCCCCCCCCCCC(=O)O; Dab = NCC[C@H](N)C(=O)O; AEEA = NCCOCCOCC(=O)O

Molecular target: T1, PD-1/PD-L1 interaction (PE-labeled human PD-L1-Ig binding to Jurkat cell line over-expressing human PD-1) (Homo sapiens, UniProt Q15116)
T1 construct: expressed in transfected cells; host or cells: Jurkat
Assay: Jurkat-PD-1 Cell Binding High-Content Screening Assay (CBA)
Type: cell-based
Conditions: Jurkat cell line over-expressing human PD-1; PE-labeled PD-L1-Ig 20 nM final; read-out: Jurkat hPD1-PDL1 IC50
How it was run: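 Jurkat-hPD-1 cells, DMEM/10% FCS; cpd 2 h 37° C; PE-PD-L1-Ig 20 nM final, 1 h; 4% PFA fix + Hoechst 33342, 3× dPBS wash; high-content imaging read-out.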

T1 sequence (Q15116 25-288): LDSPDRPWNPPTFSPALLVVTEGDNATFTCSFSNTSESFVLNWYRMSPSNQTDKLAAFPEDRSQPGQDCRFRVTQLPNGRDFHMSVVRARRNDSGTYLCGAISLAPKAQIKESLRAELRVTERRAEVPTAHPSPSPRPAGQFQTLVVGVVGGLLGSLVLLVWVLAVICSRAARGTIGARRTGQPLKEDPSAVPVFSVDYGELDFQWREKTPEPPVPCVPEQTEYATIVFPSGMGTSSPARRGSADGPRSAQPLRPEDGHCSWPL

Row | SMILES | pIC50
1 | Cc1cccc(C[C@@H]2NC(=O)[C@H](CC(=O)O)NC(=O)[C@H](Cc3ccc(C(=O)O)cc3)NC(=O)[C@H](Cc3ccncc3)NC(=O)CSC[C@@H](C(=O)NCCOCCOCC(=O)NCCOCCOCC(=O)NCCCCCCCCCCC(=O)O)NC(=O)[C@H](Cc3cnc[nH]3)NC(=O)[C@H](C(C)(C)O)NC(=O)[C@H](CC3CCCCC3)NC(=O)[C@H](CCN)NC(=O)[C@@H](CC(C)C)NC(=O)[C@H](CCCN)NC(=O)[C@H](Cc3ccc(OCC(=O)O)cc3)NC(=O)[C@H](Cc3ccc(-c4ccccc4)cc3)NC(=O)[C@H](Cc3ccc(OCC(=O)O)cc3)NC2=O)c1 [Compound 3735] ({CH2CO}-[4Pal][Phe(4-COOH)]D[Phe(3-Me)]Y(Carboxymethyl)[Bip]Y(Carboxymethyl)[Orn][dL][Dab][Cha][Val(3-OH)]HC[AEEA][AEEA][Aun]-OH; thioether N-14) | 7.69
2 | CC(C)C[C@H]1NC(=O)[C@H](CCCN)NC(=O)[C@H](CCCNC(N)=O)NC(=O)[C@H](Cc2ccc(-c3ccccc3)cc2)NC(=O)[C@H](C(C)C)NC(=O)[C@H](Cc2c[nH]c3ccccc23)NC(=O)[C@H](CC(=O)O)NC(=O)[C@H](Cc2ccc(OCC(=O)O)cc2)NC(=O)[C@H](C(C)O)NC(=O)CSC[C@@H](C(=O)N[C@@H](CCN)C(=O)NCCOCCOCC(=O)NCCCCCCCCCCC(=O)O)NC(=O)[C@H](C(C)O)NC(=O)[C@H](C(C)(C)O)NC(=O)[C@H](CC2CCCCC2)NC(=O)[C@H](CCN)NC1=O (stereo partly drawn) [Compound 3736] ({CH2CO}-[Thr(3ξ)]Y(Carboxymethyl)DWV[Bip][Cit][Orn][dL][Dab][Cha][Val(3-OH)][Thr(3ξ)]C[Dab][AEEA][Aun]-OH; thioether N-14) | 7.73
3 | Cc1cccc(C[C@@H]2NC(=O)[C@H](CC(=O)O)NC(=O)[C@H](Cc3ccc(OCC(=O)O)cc3)NC(=O)[C@H](C(C)O)NC(=O)CSC[C@@H](C(=O)N[C@@H](CCN)C(=O)NCCOCCOCC(=O)NCCCCCCCCCCC(=O)O)NC(=O)[C@H](CCC(=O)O)NC(=O)[C@H](C(C)C)NC(=O)[C@H](CC3CCCCC3)NC(=O)[C@H](CCN)NC(=O)[C@@H](CC(C)C)NC(=O)[C@H](CCCN)NC(=O)[C@H](Cc3ccc(OCC(=O)O)cc3)NC(=O)[C@H](Cc3ccc(-c4ccccc4)cc3)NC(=O)[C@H](Cc3ccc(C(=O)O)cc3)NC2=O)c1 (stereo partly drawn) [Compound 3737] ({CH2CO}-[Thr(3ξ)]Y(Carboxymethyl)D[Phe(3-Me)][Phe(4-COOH)][Bip]Y(Carboxymethyl)[Orn][dL][Dab][Cha]VEC[Dab][AEEA][Aun]-OH; thioether N-14) | 7.98
4 | Cc1cccc(C[C@@H]2NC(=O)[C@H](CC(=O)O)NC(=O)[C@H](Cc3ccc(OCC(=O)O)cc3)NC(=O)[C@H](Cc3ccncc3)NC(=O)CSC[C@@H](C(=O)N[C@H](CCN)C(=O)NCCCCCCCCCCC(=O)O)NC(=O)[C@H](Cc3cnc[nH]3)NC(=O)[C@H](C(C)(C)O)NC(=O)[C@H](CC3CCCCC3)NC(=O)[C@H](CCN)NC(=O)[C@@H](CC(C)C)NC(=O)[C@H](CCCN)NC(=O)[C@H](Cc3ccc(OCC(=O)O)cc3)NC(=O)[C@H](Cc3ccc(-c4ccccc4)cc3)NC(=O)[C@H](Cc3ccc(OCC(=O)O)cc3)NC2=O)c1 [Compound 3738] ({CH2CO}-[4Pal]Y(Carboxymethyl)D[Phe(3-Me)]Y(Carboxymethyl)[Bip]Y(Carboxymethyl)[Orn][dL][Dab][Cha][Val(3-OH)]HC[dDab][Aun]-OH; thioether N-14) | 7.68
5 | CCC(C)[C@@H]1NC(=O)[C@H](Cc2ccc(-c3ccccc3)cc2)NC(=O)[C@H](Cc2ccc(C(=O)O)cc2)NC(=O)[C@H](Cc2cccc(C)c2)NC(=O)[C@H](CC(=O)O)NC(=O)[C@H](Cc2ccc(C(=O)O)cc2)NC(=O)[C@H](Cc2ccncc2)NC(=O)CSC[C@@H](C(=O)N[C@H](CCN)C(=O)NCCOCCOCC(=O)NCCCCCCCCCCC(=O)O)NC(=O)[C@H](CCC(=O)O)NC(=O)[C@H](C(C)(C)O)NC(=O)[C@H](CC2CCCCC2)NC(=O)[C@H](CCN)NC(=O)[C@@H](CC(C)C)NC(=O)[C@H](Cc2cnc[nH]2)NC1=O (stereo partly drawn) [Compound 3739] ({CH2CO}-[4Pal][Phe(4-COOH)]D[Phe(3-Me)][Phe(4-COOH)][Bip][Ile(3ξ)]H[dL][Dab][Cha][Val(3-OH)]EC[dDab][AEEA][Aun]-OH; thioether N-14) | 7.39
6 | Cc1cccc(C[C@@H]2NC(=O)[C@H](CC(=O)O)NC(=O)[C@H](Cc3ccc(OCC(=O)O)cc3)NC(=O)[C@H](Cc3ccncc3)NC(=O)CSC[C@@H](C(=O)N[C@H](CCN)C(=O)NCCOCCOCC(=O)NCCCCCCCCCCC(=O)O)NC(=O)[C@H](CCC(=O)O)NC(=O)[C@H](C(C)(C)O)NC(=O)[C@H](CC3CCCCC3)NC(=O)[C@H](CCN)NC(=O)[C@@H](CC(C)C)NC(=O)[C@H](Cc3cnc[nH]3)NC(=O)[C@H](Cc3ccc(C(=O)O)cc3)NC(=O)[C@H](Cc3ccc(-c4ccccc4)cc3)NC(=O)[C@H](Cc3ccc(C(=O)O)cc3)NC2=O)c1 [Compound 3740] ({CH2CO}-[4Pal]Y(Carboxymethyl)D[Phe(3-Me)][Phe(4-COOH)][Bip][Phe(4-COOH)]H[dL][Dab][Cha][Val(3-OH)]EC[dDab][AEEA][Aun]-OH; thioether N-14) | 7.79
7 | Cc1cccc(C[C@@H]2NC(=O)[C@H](CC(=O)O)NC(=O)[C@H](Cc3ccc(OCC(=O)O)cc3)NC(=O)[C@H](Cc3ccncc3)NC(=O)CSC[C@@H](C(=O)N[C@@H](CCN)C(=O)NCCOCCOCC(=O)NCCOCCOCC(=O)NCCCCCCCCCCC(=O)O)NC(=O)[C@H](CCC(=O)O)NC(=O)[C@H](C(C)(C)O)NC(=O)[C@H](CC3CCCCC3)NC(=O)[C@H](CCN)NC(=O)[C@@H](CC(C)C)NC(=O)[C@H](CCCN)NC(=O)[C@H](Cc3ccc(C(=O)O)cc3)NC(=O)[C@H](Cc3ccc(-c4ccccc4)cc3)NC(=O)[C@H](Cc3ccc(C(=O)O)cc3)NC2=O)c1 [Compound 3741] ({CH2CO}-[4Pal]Y(Carboxymethyl)D[Phe(3-Me)][Phe(4-COOH)][Bip][Phe(4-COOH)][Orn][dL][Dab][Cha][Val(3-OH)]EC[Dab][AEEA][AEEA][Aun]-OH; thioether N-14) | 8.06
8 | Cc1cccc(C[C@@H]2NC(=O)[C@H](CC(=O)O)NC(=O)[C@H](Cc3ccc(OCC(=O)O)cc3)NC(=O)[C@H](Cc3ccncc3)NC(=O)CSC[C@@H](C(=O)N[C@@H](CCN)C(=O)NCCOCCOCC(=O)NCCOCCOCC(=O)NCCCCCCCCCCC(=O)O)NC(=O)[C@H](Cc3cnc[nH]3)NC(=O)[C@H](C(C)(C)O)NC(=O)[C@H](CC3CCCCC3)NC(=O)[C@H](CCN)NC(=O)[C@@H](CC(C)C)NC(=O)[C@H](CCCN)NC(=O)[C@H](Cc3ccc(C(=O)O)cc3)NC(=O)[C@H](Cc3ccc(-c4ccccc4)cc3)NC(=O)[C@H](Cc3ccc(C(=O)O)cc3)NC2=O)c1 [Compound 3742] ({CH2CO}-[4Pal]Y(Carboxymethyl)D[Phe(3-Me)][Phe(4-COOH)][Bip][Phe(4-COOH)][Orn][dL][Dab][Cha][Val(3-OH)]HC[Dab][AEEA][AEEA][Aun]-OH; thioether N-14) | 8.77
9 | Cc1cccc(C[C@@H]2NC(=O)[C@H](CC(=O)O)NC(=O)[C@H](Cc3ccc(C(=O)O)cc3)NC(=O)[C@H](C(C)C)NC(=O)CSC[C@@H](C(=O)N[C@@H](CCN)C(=O)NCCOCCOCC(=O)NCCCCCCCCCCC(=O)O)NC(=O)[C@H](CO)NC(=O)[C@H](C(C)(C)O)NC(=O)[C@H](CC3CCCCC3)NC(=O)[C@H](CCN)NC(=O)[C@@H](CC(C)C)NC(=O)[C@H](CCCN)NC(=O)[C@H](Cc3ccc(OCC(=O)O)cc3)NC(=O)[C@H](Cc3ccc(-c4ccccc4)cc3)NC(=O)[C@H](Cc3ccc(OCC(=O)O)cc3)NC2=O)c1 [Compound 3743] ({CH2CO}-V[Phe(4-COOH)]D[Phe(3-Me)]Y(Carboxymethyl)[Bip]Y(Carboxymethyl)[Orn][dL][Dab][Cha][Val(3-OH)]SC[Dab][AEEA][Aun]-OH; thioether N-14) | 8.32
10 | Cc1cccc(C[C@@H]2NC(=O)[C@H](CC(=O)O)NC(=O)[C@H](Cc3ccc(OCC(=O)O)cc3)NC(=O)[C@H](Cc3ccncc3)NC(=O)CSC[C@@H](C(=O)N[C@@H](CCN)C(=O)NCCOCCOCC(=O)NCCCCCCCCCCC(=O)O)NC(=O)[C@H](CCC(=O)O)NC(=O)[C@H](C(C)(C)O)NC(=O)[C@H](CC3CCCCC3)NC(=O)[C@H](CCN)NC(=O)[C@@H](CC(C)C)NC(=O)[C@H](CCCN)NC(=O)[C@H](Cc3ccc(C(=O)O)cc3)NC(=O)[C@H](Cc3ccc(-c4ccccc4)cc3)NC(=O)[C@H](Cc3ccc(C(=O)O)cc3)NC2=O)c1 [Compound 3744] ({CH2CO}-[4Pal]Y(Carboxymethyl)D[Phe(3-Me)][Phe(4-COOH)][Bip][Phe(4-COOH)][Orn][dL][Dab][Cha][Val(3-OH)]EC[Dab][AEEA][Aun]-OH; thioether N-14) | 7.78
11 | Cc1cccc(C[C@@H]2NC(=O)[C@H](CC(=O)O)NC(=O)[C@H](Cc3ccc(OCC(=O)O)cc3)NC(=O)[C@H](Cc3ccncc3)NC(=O)CSC[C@@H](C(=O)N[C@@H](CCN)C(=O)NCCOCCOCC(=O)NCCCCCCCCCCC(=O)O)NC(=O)[C@H](CCC(=O)O)NC(=O)[C@H](C(C)(C)O)NC(=O)[C@H](CC3CCCCC3)NC(=O)[C@H](CCN)NC(=O)[C@@H](CC(C)C)NC(=O)[C@H](CCC(N)=O)NC(=O)[C@H](Cc3ccc(OCC(=O)O)cc3)NC(=O)[C@H](Cc3ccc(-c4ccccc4)cc3)NC(=O)[C@H](Cc3ccc(OCC(=O)O)cc3)NC2=O)c1 [Compound 3746] ({CH2CO}-[4Pal]Y(Carboxymethyl)D[Phe(3-Me)]Y(Carboxymethyl)[Bip]Y(Carboxymethyl)Q[dL][Dab][Cha][Val(3-OH)]EC[Dab][AEEA][Aun]-OH; thioether N-14) | 8.17
12 | Cc1cccc(C[C@@H]2NC(=O)[C@H](CC(=O)O)NC(=O)[C@H](Cc3ccc(OCC(=O)O)cc3)NC(=O)[C@H](Cc3ccncc3)NC(=O)CSC[C@@H](C(=O)N[C@@H](CCN)C(=O)NCCOCCOCC(=O)NCCCCCCCCCCC(=O)O)NC(=O)[C@H](CO)NC(=O)[C@H](C(C)(C)O)NC(=O)[C@H](CC3CCCCC3)NC(=O)[C@H](CCN)NC(=O)[C@@H](CC(C)C)NC(=O)[C@H](CCC(N)=O)NC(=O)[C@H](Cc3ccc(C(=O)O)cc3)NC(=O)[C@H](Cc3ccc(-c4ccccc4)cc3)NC(=O)[C@H](Cc3ccc(C(=O)O)cc3)NC2=O)c1 [Compound 3747] ({CH2CO}-[4Pal]Y(Carboxymethyl)D[Phe(3-Me)][Phe(4-COOH)][Bip][Phe(4-COOH)]Q[dL][Dab][Cha][Val(3-OH)]SC[Dab][AEEA][Aun]-OH; thioether N-14) | 7.92
